Values after ≈ are worked out from the molar mass of the structure shown. Where a name gives a salt, the structure may show the parent alone.

Data set [1] can be described thus: Selectivity index, ratio of CC50 for cytotoxicity against MDBK cells to EC50 for antiviral activity against bovine viral diarrhea virus 1 infected in MDBK cells. The format is toxicity, cell-based. The settings on record: cattle, read-out: Ratio CC50/EC50.
For data set [2], the system named is Bovine viral diarrhea virus 1. Put plainly: Antiviral activity against bovine viral diarrhea virus 1 infected in MDBK cells assessed as reduction in viral replication-induced cell destruction incubated for 3 days. The format is functional, organism-based. Conditions: Bovine viral diarrhea virus isolates and strains, 72 h.
The target in data set [3] is T1, Glutamate receptor ionotropic, NMDA 2B (Homo sapiens, UniProt Q05586+Q13224). The data set can be described thus: Displacement of [3H]MK801 from NMDA receptor NR2B subunit (unknown origin).
The target in data set [4] is T1, Glutamate receptor ionotropic, NMDA 2B. Put plainly: Displacement of [3H]ifenprodyl from NMDA receptor NR2B subunit (unknown origin). In general terms: Loss of bound radioactivity is the signal in a displacement assay; it reports binding, not function.
Data set [5] concerns the target Cholinesterase (Homo sapiens, UniProt P06276). Put plainly: Inhibition of BChE (unknown origin).
Data set [6] deals with Glutamate [NMDA] receptor. The data set can be described thus: Displacement of [3H]ifenprodyl from NMDA receptor (unknown origin). In kind it is protein-complex assay, Homo sapiens.
For a further data set, the target named is Acetylcholinesterase (Homo sapiens, UniProt P22303). Put plainly: Inhibition of human erythrocyte AChE incubated for 10 mins by Ellman's method. In kind it is cell-based. For orientation: DTNB colorimetry detects thiols as they appear.
For data set [7], the target named is Cholinesterase (Equus caballus, UniProt P81908). Put plainly: Inhibition of horse serum BChE incubated for 10 mins by Ellman's method. The format is cell-free.
In another data set the test system is L5178Y. The data set can be described thus: Cytotoxicity against mouse L5178Y cells. In kind it is functional, cell-based.
The test system of another data set is Escherichia coli. The data set can be described thus: Antibacterial activity against Escherichia coli assessed as inhibition of bacterial growth incubated for 24 hrs by agar diffusion assay. In kind it is functional, organism-based. A general note: Agar diffusion results depend on both activity and mobility in agar.

Cholinesterase (Homo sapiens, UniProt P06276), sequence (P06276 whole entry): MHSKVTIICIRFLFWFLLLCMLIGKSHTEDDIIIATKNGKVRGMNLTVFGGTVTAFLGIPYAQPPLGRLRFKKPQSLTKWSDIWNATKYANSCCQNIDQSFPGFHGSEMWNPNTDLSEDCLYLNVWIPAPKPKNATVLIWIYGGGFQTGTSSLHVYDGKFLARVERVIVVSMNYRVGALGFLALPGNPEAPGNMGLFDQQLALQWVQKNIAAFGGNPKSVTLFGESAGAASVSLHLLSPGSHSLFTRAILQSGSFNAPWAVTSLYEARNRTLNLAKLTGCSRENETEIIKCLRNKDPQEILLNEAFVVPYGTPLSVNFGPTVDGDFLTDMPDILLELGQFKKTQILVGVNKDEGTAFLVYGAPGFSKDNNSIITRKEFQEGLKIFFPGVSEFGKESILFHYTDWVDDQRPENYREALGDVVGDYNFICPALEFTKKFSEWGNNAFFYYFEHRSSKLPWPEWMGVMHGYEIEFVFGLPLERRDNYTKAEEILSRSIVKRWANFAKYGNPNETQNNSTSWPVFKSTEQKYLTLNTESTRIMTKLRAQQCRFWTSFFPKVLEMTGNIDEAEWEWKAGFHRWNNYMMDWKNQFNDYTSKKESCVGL
T1 sequence (Q13224 whole entry, one chain of several): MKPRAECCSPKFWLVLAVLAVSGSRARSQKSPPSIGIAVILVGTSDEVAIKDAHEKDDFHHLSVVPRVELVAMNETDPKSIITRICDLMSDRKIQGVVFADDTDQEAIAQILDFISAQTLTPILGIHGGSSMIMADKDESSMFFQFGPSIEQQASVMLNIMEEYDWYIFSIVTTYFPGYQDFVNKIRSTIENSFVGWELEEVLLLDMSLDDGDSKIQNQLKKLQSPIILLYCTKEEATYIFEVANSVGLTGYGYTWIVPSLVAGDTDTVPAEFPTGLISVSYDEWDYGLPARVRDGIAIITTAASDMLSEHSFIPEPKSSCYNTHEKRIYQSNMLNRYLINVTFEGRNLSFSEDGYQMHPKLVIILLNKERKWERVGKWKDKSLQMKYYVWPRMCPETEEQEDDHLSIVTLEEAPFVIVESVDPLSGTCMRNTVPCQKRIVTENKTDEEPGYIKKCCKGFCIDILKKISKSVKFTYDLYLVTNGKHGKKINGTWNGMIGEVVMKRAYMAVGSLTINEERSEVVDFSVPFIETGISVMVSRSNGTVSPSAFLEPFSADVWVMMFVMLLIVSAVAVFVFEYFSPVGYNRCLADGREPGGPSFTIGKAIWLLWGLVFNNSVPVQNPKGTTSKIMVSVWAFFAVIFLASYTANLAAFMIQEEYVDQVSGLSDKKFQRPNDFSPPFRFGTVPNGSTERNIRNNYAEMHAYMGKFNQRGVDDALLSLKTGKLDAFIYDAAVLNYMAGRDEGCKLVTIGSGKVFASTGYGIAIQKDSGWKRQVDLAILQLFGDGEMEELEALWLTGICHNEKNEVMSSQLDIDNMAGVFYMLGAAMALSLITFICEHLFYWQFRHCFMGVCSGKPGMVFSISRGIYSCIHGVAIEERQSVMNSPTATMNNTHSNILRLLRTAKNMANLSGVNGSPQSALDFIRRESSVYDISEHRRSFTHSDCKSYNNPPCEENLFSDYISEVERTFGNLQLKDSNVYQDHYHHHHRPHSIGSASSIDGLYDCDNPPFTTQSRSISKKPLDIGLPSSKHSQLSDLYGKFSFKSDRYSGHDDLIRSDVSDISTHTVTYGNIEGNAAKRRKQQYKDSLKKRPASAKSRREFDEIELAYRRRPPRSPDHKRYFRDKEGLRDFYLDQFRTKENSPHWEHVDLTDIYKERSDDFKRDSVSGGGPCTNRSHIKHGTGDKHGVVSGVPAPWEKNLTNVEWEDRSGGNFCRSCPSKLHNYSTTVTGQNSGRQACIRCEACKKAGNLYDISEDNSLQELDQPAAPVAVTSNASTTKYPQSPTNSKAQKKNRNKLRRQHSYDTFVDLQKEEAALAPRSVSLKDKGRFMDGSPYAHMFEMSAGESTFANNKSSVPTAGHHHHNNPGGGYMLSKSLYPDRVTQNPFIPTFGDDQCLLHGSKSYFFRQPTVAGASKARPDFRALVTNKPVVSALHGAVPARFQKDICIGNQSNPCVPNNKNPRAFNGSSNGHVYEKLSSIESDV
Acetylcholinesterase, sequence (P22303 whole entry): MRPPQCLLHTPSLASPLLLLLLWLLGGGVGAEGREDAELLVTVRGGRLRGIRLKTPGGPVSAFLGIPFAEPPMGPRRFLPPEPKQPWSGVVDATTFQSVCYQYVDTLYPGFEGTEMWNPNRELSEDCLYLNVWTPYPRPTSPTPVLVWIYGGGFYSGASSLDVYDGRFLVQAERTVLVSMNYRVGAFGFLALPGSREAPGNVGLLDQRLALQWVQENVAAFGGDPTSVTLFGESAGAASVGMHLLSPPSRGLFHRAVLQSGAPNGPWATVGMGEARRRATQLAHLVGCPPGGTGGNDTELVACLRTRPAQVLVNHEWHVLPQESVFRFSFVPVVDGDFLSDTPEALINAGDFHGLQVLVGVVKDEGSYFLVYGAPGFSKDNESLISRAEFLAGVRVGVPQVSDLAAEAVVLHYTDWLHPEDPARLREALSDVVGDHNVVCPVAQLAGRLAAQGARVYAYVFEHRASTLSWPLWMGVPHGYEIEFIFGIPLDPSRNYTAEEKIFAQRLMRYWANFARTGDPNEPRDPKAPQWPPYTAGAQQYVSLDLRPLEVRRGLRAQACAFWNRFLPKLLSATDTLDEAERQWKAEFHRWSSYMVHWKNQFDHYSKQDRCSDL
Cholinesterase (Equus caballus, UniProt P81908), sequence (P81908 whole entry): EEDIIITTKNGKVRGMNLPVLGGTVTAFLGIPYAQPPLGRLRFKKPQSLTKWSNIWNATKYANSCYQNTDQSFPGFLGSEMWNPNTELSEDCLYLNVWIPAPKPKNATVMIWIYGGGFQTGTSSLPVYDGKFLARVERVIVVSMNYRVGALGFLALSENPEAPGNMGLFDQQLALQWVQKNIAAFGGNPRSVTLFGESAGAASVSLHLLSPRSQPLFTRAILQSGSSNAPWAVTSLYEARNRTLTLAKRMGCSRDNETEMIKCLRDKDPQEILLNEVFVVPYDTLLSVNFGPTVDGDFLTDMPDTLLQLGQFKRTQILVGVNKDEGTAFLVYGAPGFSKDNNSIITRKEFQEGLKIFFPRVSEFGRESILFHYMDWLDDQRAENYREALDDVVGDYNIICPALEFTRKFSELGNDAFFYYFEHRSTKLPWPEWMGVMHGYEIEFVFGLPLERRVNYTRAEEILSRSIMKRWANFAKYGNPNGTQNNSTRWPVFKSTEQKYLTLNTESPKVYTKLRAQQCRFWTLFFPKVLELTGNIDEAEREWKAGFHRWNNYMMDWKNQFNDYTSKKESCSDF

For the molecule `c1ccc2c(c1)[nH]c1ccncc12`, the selectivity ratio in [1] came out at 20.
Broadly, the EC50 is the concentration that produces a half-maximal response. As to `Cc1ncc2c3ccccc3n(C)c2c1C`, the selectivity ratio in [1] is 2060. Further, in data set [2], the concentration giving a half-maximal response (EC50) was 3.5 nM.
The term IC50 denotes the concentration that gives 50% inhibition. Turning to `CCN1CCc2c(c3cc(F)ccc3n2CCC(=O)N2c3ccccc3Sc3ccccc32)C1`, the IC50 in data set [3] was 15.8 µM; in [4] it was 8.8 µM.
The corresponding values for `CCN1CCc2c(c3ccccc3n2CCC(=O)N2c3ccccc3Sc3ccccc32)C1` are 14.6 µM and 13.4 µM.
Regarding `Cc1ccc2c(c1)c1c(n2CC(O)Cn2c3c(c4ccccc42)CCCC3)CCN(C)C1` (stereo unspecified), on Cholinesterase [5], the half-maximal inhibitory concentration (IC50) is 3.9 µM.
Same read-out and setting: under `CN1CCc2c(c3cc(F)ccc3n2CC(O)Cn2c3c(c4ccccc42)CCCC3)C1` (stereo unspecified) stands 5.03 µM.
`CCN1CCc2c(c3cc(C)ccc3n2CC(O)Cn2c3c(c4ccccc42)CCCC3)C1` (stereo unspecified) displayed a half-inhibitory concentration (IC50) at Cholinesterase [5] of 5.23 µM.
`Cc1ccc2c(c1)c1c(n2CC(O)Cn2c3ccccc3c3ccccc32)CCN(C)C1` (stereo unspecified) yielded an IC50 in data set [6] of 11.7 µM.
`CCc1ccc2c(c1)c1c(n2CCC(=O)N2c3ccccc3Sc3ccccc32)CCN(C)C1`: the IC50 in data set [3] came out at 13.2 µM; in data set [4], 15.4 µM.
The molecule `CCN1CCc2c(c3cc(C)ccc3n2-c2c(C(F)(F)F)nc3ccccn23)C1` showed an IC50 in [4] of 39.5 µM.
As for `CCN1CCc2c(c3cc(C)ccc3n2CC(O)Cn2c3ccccc3c3ccccc32)C1` (stereo unspecified), the half-inhibitory concentration (IC50) in [6] amounted to 12.5 µM.
`CN1CCc2c(c3ccccc3n2CC(O)Cn2c3c(c4ccccc42)CCCC3)C1` (stereo unspecified): the midpoint of inhibition against Cholinesterase [5], the IC50, lay at 1.06 µM.
With `Cc1ccc2c(c1)c1c(n2CCC(=O)N(C)c2c(C(F)(F)F)nc3cc(C)ccn23)CCN(C)C1`, the IC50 in data set [4] was found to be 32.6 µM.
Turning to `CCN1CCc2c(c3cc(F)ccc3n2CC(O)Cn2c3c(c4ccccc42)CCCC3)C1` (stereo unspecified), at Cholinesterase [5], the midpoint of inhibition, the IC50, lay at 5.83 µM.
`CN1CCc2c(c3ccccc3n2Cc2ccccc2C(=O)NCCO[N+](=O)[O-])C1`: the IC50 at Acetylcholinesterase amounted to 14.8 µM; against Cholinesterase [7], 3.68 µM.
On to `COc1ccc2c(c1)c1c(n2CC(O)CN2c3ccccc3Sc3ccccc32)CCN(C)C1` (stereo unspecified), for which the IC50 on Cholinesterase [5] was determined as 0.39 µM.
As to `Nc1nccc(-c2cncc3c2[nH]c2ccccc23)n1`, the EC50 in the data set with L5178Y was 9.1 µg/mL (≈ 34.8 µM).
`CCN1CCc2c(c3ccccc3n2CC(O)Cn2c3c(c4ccccc42)CCCC3)C1` (stereo unspecified) had an IC50 on Cholinesterase [5] of 2.77 µM.
`Cn1cc2c3ccccc3n(C)c2c(Cc2ccccc2Cl)c1=O`: the IC50 in the data set on Escherichia coli came out at 17 µM.
Turning to `Cc1ccc2c(c1)c1c(n2CCc2ccc(C)nc2)CCN(C)C1` [LATREPIRDINE], in data set [4], the IC50 was 82.4 µM.
Consider `CN(C)[C@@H]1C(O)=C(C(N)=O)C(=O)[C@@]2(O)C(O)=C3C(=O)c4c(O)cccc4[C@@](C)(O)[C@H]3C[C@@H]12` [TETRACYCLINE HYDROCHLORIDE], for which the IC50 in the data set on Escherichia coli amounted to 30 µM.

The values above are taken from ChEMBL document CHEMBL5252549, “Recent developments on synthesis and biological activities of γ-carboline” (Eur J Med Chem, 2018).
